Reference: US20230096766A1, “AMINO ACID HAVING FUNCTIONAL GROUP CAPABLE OF INTERMOLECULAR HYDROGEN BONDING, PEPTIDE COMPOUND CONTAINING SAME AND METHOD FOR PRODUCTION THEREOF” (Chugai Seiyaku Kabushiki Kaisha, priority 2018, published 2023)
*1 amine or outer side, *2 acyl side, *3 side chain or, on linkers, in order; H or OH if unused. Where a SMILES comes first, the peptide text is derived from it. Bridges are numbered along the chain shown (N, C = ends). [ ]: non-standard residue; d: D form. The star is where a group is joined. ξ: configuration not given here. X1 = COc1cc(C[C@H](N[*:1])C(=O)[*:2])ccc1C(=O)NO; Phe(4-COOH) = N[C@@H](Cc1ccc(C(=O)O)cc1)C(=O)O; NMePhe(3-Cl) = CN[C@@H](Cc1cccc(Cl)c1)C(=O)O; NMeF = CN[C@@H](Cc1ccccc1)C(=O)O; NMeGABA = CN(CCCC(=O)[*:2])[*:1]; NMeI = CC[C@H](C)[C@H](NC)C(=O)O; NMeL = CN[C@@H](CC(C)C)C(=O)O; Thr(3ξ) = CC(O)[C@H](N)C(=O)O; NMeV = CN[C@H](C(=O)O)C(C)C; NMeAbu = CC[C@H](NC)C(=O)O; ξNMeL = CNC(CC(C)C)C(=O)O; NMeA = CN[C@@H](C)C(=O)O; Piperidide = C1CCN(*)CC1; X8 = C1COC[C@@H](C*)N1; NBuGly = CCCCNCC(=O)O; N(OH)Me = CN(O)*; Sar = CNCC(=O)O; tBu = CC(C)(C)*

Assay: in vitro
Conditions: human, Caco-2, Caco-2 (cm/sec)

SMILES	Papp [×10⁻⁶ cm/s]
CC[C@H]1C(=O)N(C)[C@@H](Cc2ccccc2)C(=O)N[C@@H](CC(C)C)C(=O)N(C)[C@@H](CC(C)C)C(=O)N(C)[C@@H](CC(C)C)C(=O)N[C@@H](COC[C@@H]2COCCN2)C(=O)N(C)CC(=O)N(C)[C@@H](CC(C)C)C(=O)N[C@H](C(=O)N2CCCCC2)CC(=O)N(C)[C@@H](C)C(=O)N[C@@H](CC(C)C)C(=O)N1C [AP246] ([NMeA]L[NMeAbu][NMeF]L[NMeL][NMeL]S(X8)[Sar][NMeL]D-Piperidide; lactam N-11)	0.23
CCCCN1CC(=O)N(C)[C@@H](Cc2ccccc2)C(=O)N(C)[C@@H](CC(C)C)C(=O)N[C@@H](CC(C)C)C(=O)N(C)[C@@H](CC(C)C)C(=O)N[C@H](C(=O)N2CCCCC2)CC(=O)N(C)CC(=O)N(C)[C@@H](CC)C(=O)N[C@@H](C(C)C)C(=O)N(C)[C@@H](CC)C(=O)N[C@@H](COC[C@@H]2COCCN2)C1=O [AP247] ([Sar][NMeAbu]V[NMeAbu]S(X8)[NBuGly][NMeF][NMeL]L[NMeL]D-Piperidide; lactam N-11)	0.69
CCCCN1CC(=O)N(C)[C@@H](CC(C)C)C(=O)N[C@@H](COC(C)(C)C)C(=O)N(C)[C@@H](Cc2ccccc2)C(=O)N(C)[C@@H](CC(C)C)C(=O)N[C@H](C(=O)N2CCCCC2)CC(=O)N[C@H](C(C)C)C(=O)N(C)[C@@H](C(C)C)C(=O)N[C@@H](Cc2ccc(C(=O)N(C)O)cc2)C(=O)N(C)[C@@H](CC(C)C)C(=O)N[C@@H]([C@@H](C)O)C1=O [AP248] ([dV][NMeV][Phe(4-COOH)](N(OH)Me)[NMeL]T[NBuGly][NMeL]S(tBu)[NMeF][NMeL]D-Piperidide; lactam N-11)	0.24
CCCCN1CC(=O)N(C)[C@@H](CC(C)C)C(=O)N[C@@H](Cc2ccc(C(=O)N(C)O)cc2)C(=O)N(C)[C@@H](CC(C)C)C(=O)N(C)[C@@H](CC(C)C)C(=O)N[C@H](C(=O)N2CCCCC2)CC(=O)N[C@H](CC(C)C)C(=O)N(C)[C@@H](Cc2ccccc2)C(=O)N[C@@H](C(C)C)C(=O)N(C)C(CC(C)C)C(=O)N[C@@H]([C@@H](C)O)C1=O (stereo partly drawn) [AP249] ([dL][NMeF]V[ξNMeL]T[NBuGly][NMeL][Phe(4-COOH)](N(OH)Me)[NMeL][NMeL]D-Piperidide; lactam N-11)	0.04
CCCCN1CC(=O)N(C)[C@@H](CC(C)C)C(=O)N[C@@H](COC(C)(C)C)C(=O)N(C)[C@@H]([C@@H](C)CC)C(=O)N(C)[C@@H](CC(C)C)C(=O)N[C@H](C(=O)N2CCCCC2)CC(=O)N[C@H](C)C(=O)N(C)[C@@H](Cc2ccccc2)C(=O)N[C@@H](Cc2ccc(C(=O)N(C)O)cc2)C(=O)N(C)[C@@H](CC(C)C)C(=O)N[C@@H]([C@@H](C)O)C1=O [AP250] ([dA][NMeF][Phe(4-COOH)](N(OH)Me)[NMeL]T[NBuGly][NMeL]S(tBu)[NMeI][NMeL]D-Piperidide; lactam N-11)	0.12
CC[C@H](C)[C@@H]1NC(=O)[C@H](CC(C)C)N(C)C(=O)CCCN(C)C(=O)C[C@@H](C(=O)N2CCCCC2)NC(=O)[C@H](CC(C)C)N(C)C(=O)[C@H](CC(C)C)N(C)C(=O)[C@H]([C@@H](C)O)NC(=O)[C@H](CC(C)C)N(C)C(=O)[C@H](Cc2ccc(C(=O)N(C)O)cc2)NC(=O)[C@H](CC(C)C)N(C)C(=O)[C@H](Cc2ccccc2)N(C)C1=O [AP251] ([NMeGABA][NMeL]I[NMeF][NMeL][Phe(4-COOH)](N(OH)Me)[NMeL]T[NMeL][NMeL]D-Piperidide; lactam N-11)	0.03
CC(C)C[C@@H]1NC(=O)[C@H](CC(C)C)N(C)C(=O)C[C@@H](C(=O)N2CCCCC2)NC(=O)[C@H](CC(C)C)N(C)C(=O)CN(C)C(=O)[C@H]([C@@H](C)O)NC(=O)[C@H](C(C)C)N(C)C(=O)[C@H](CC(C)C)N(C)C(=O)[C@H](Cc2ccc(C(=O)N(C)O)cc2)NC(=O)[C@H](CC(C)C)N(C)C(=O)[C@H](CC(C)C)N(C)C1=O [AP253] ([NMeL]L[NMeL][NMeL][Phe(4-COOH)](N(OH)Me)[NMeL][NMeV]T[Sar][NMeL]D-Piperidide; lactam N-11)	0.12
CCCCN1CC(=O)N(C)[C@@H](CC(C)C)C(=O)N(C)[C@@H](CC(C)C)C(=O)N[C@@H](COC(C)(C)C)C(=O)N(C)[C@@H](CC(C)C)C(=O)N[C@H](C(=O)N2CCCCC2)CC(=O)N(C)CC(=O)N(C)[C@@H](Cc2cccc(Cl)c2)C(=O)N[C@@H](Cc2ccc(C(=O)N(C)O)cc2)C(=O)N(C)[C@@H](CC(C)C)C(=O)N[C@@H]([C@@H](C)O)C1=O [AP254] ([Sar][NMePhe(3-Cl)][Phe(4-COOH)](N(OH)Me)[NMeL]T[NBuGly][NMeL][NMeL]S(tBu)[NMeL]D-Piperidide; lactam N-11)	0.15
CC[C@H](C)[C@@H]1NC(=O)[C@H](CC(C)C)N(C)C(=O)CN(C)C(=O)C[C@@H](C(=O)N2CCCCC2)NC(=O)[C@H](CC(C)C)N(C)C(=O)[C@H](Cc2ccc(C(=O)N(C)O)cc2)NC(=O)[C@H](CC(C)C)N(C)C(=O)[C@H](Cc2cccc(Cl)c2)N(C)C(=O)CN(C)C(=O)[C@H]([C@@H](C)O)NC(=O)[C@H](CC(C)C)N(C)C1=O [AP255] ([Sar][NMeL]I[NMeL]T[Sar][NMePhe(3-Cl)][NMeL][Phe(4-COOH)](N(OH)Me)[NMeL]D-Piperidide; lactam N-11)	0.05
CCCCN1CC(=O)N(C)[C@@H](CC(C)C)C(=O)N[C@@H](COC(C)(C)C)C(=O)N(C)[C@@H](Cc2ccccc2)C(=O)N(C)[C@@H](CC(C)C)C(=O)N[C@H](C(=O)N2CCCCC2)CC(=O)N[C@H](C(C)C)C(=O)N(C)[C@@H](C(C)C)C(=O)N[C@@H](Cc2ccc(C(=O)NO)c(OC)c2)C(=O)N(C)[C@@H](CC(C)C)C(=O)N[C@@H]([C@@H](C)O)C1=O [AP256] ([dV][NMeV][X1][NMeL]T[NBuGly][NMeL]S(tBu)[NMeF][NMeL]D-Piperidide; lactam N-11)	0.08
CCCCN1CC(=O)N(C)[C@@H](CC(C)C)C(=O)N[C@@H](Cc2ccc(C(=O)NO)c(OC)c2)C(=O)N(C)[C@@H](CC(C)C)C(=O)N(C)[C@@H](CC(C)C)C(=O)N[C@H](C(=O)N2CCCCC2)CC(=O)N[C@H](CC(C)C)C(=O)N(C)[C@@H](Cc2ccccc2)C(=O)N[C@@H](C(C)C)C(=O)N(C)[C@@H](CC(C)C)C(=O)N[C@@H]([C@@H](C)O)C1=O [AP257] ([dL][NMeF]V[NMeL]T[NBuGly][NMeL][X1][NMeL][NMeL]D-Piperidide; lactam N-11)	0.03
CCCCN1CC(=O)N(C)[C@@H](CC(C)C)C(=O)N(C)[C@@H](CC(C)C)C(=O)N[C@@H](COC(C)(C)C)C(=O)N(C)[C@@H](CC(C)C)C(=O)N[C@H](C(=O)N2CCCCC2)CC(=O)N(C)CC(=O)N(C)[C@@H](Cc2cccc(Cl)c2)C(=O)N[C@@H](Cc2ccc(C(=O)NO)c(OC)c2)C(=O)N(C)[C@@H](CC(C)C)C(=O)N[C@@H]([C@@H](C)O)C1=O [AP260] ([Sar][NMePhe(3-Cl)][X1][NMeL]T[NBuGly][NMeL][NMeL]S(tBu)[NMeL]D-Piperidide; lactam N-11)	0.04
CC[C@H](C)[C@@H]1NC(=O)[C@H](CC(C)C)N(C)C(=O)CN(C)C(=O)C[C@@H](C(=O)N2CCCCC2)NC(=O)[C@H](CC(C)C)N(C)C(=O)[C@H](Cc2ccc(C(=O)NO)c(OC)c2)NC(=O)[C@H](CC(C)C)N(C)C(=O)[C@H](Cc2cccc(Cl)c2)N(C)C(=O)CN(C)C(=O)[C@H](C(C)O)NC(=O)[C@H](CC(C)C)N(C)C1=O (stereo partly drawn) [AP261] ([Sar][NMeL]I[NMeL][Thr(3ξ)][Sar][NMePhe(3-Cl)][NMeL][X1][NMeL]D-Piperidide; lactam N-11)	0.02
